Measurements reported in US20240100105A1, “BACTERIOPHAGE TREATMENT FOR ACNE AND BIOFILMS” (priority 2017, published 2024).

Tests used:
[1] = tested on: P. acnes PA1 biofilm; test: Efficacy of phage mixtures on P. acnes biofilm; type: cell-based, Propionibacterium acnes; settings: for Remaining log bacteria after phage or antibiotic treatment of biofilm: phage 10^5 total PFU, Erythromycin 100 μg/mL
Experimental: To test our phage against P. acnes biofilms, the following experiment is performed on biofilms produced in the laboratory. An overnight culture of PA1 is diluted 1:1 with fresh BHIS and incubated for 4 hours at 37° C. after which the culture is once again diluted 1:1 this time with anacrobized BHIS supplemented with 1% glucose (final conc. 0.5%). Next, a 96-well plate (Thermo Fisher Scientific, Waltham, Massachusetts) is seeded with 200 μL of the diluted culture per well. The wells are sealed using 8-well strip caps (Thermo Fisher Scientific, Waltham, Massachusetts). This is incubated for 3 days to let the biofilm form. After 72 hours, 10 μL of either mixture 1 (PAP-12, PA1-9 and PA1-13), mixture 2 (PA7-1, PA1-9 and PA1-13), mixture 3 (PAP-12, PA1-9, PA1-13 and PS7-1) or 2 μL of Erythromycin is added to the relevant wells. The amount of phage added per mixture corresponds to 10^5 total PFU while for the antibiotic Erythromycin, a final concentration of 100 μg/mL (enough to inhibit PA1 growth when not in a biofilm) is used.
At 24 hrs or 48 hrs post-treatment depending on the wells, the medium is carefully removed from each well and the remaining biofilm is picked from each well into a separate Eppendorf tube using a sterile tip. At this point, 1 mL of fresh BHIS is added to the biofilm tubes, sonicated to remove the phage inside for 5 minutes (Elmasonic S 100, at 37 kHz) (Elma Schmidbauer GmbH (Singen, Germany), and centrifuged (4 min, 4000 rpm, 25° C.). The supernatant containing the phage is carefully removed to a clean tube for quantification and the process was repeated a total of 3 times to make sure all phage are removed.
To quantify the surviving bacteria, the pellet is re-suspended in 100 μL BHIS, 10-fold serially diluted in BHIS and plated on BHIS agar plates. The plates are incubated for 72 hrs at 37° C. anaerobically after which the colonies are counted and results rounded to the nearest log. In parallel, the phage quantities inside the biofilm are tested by taking the supernatant set aside earlier, and using the aforementioned plaque assay to assess the original quantities.

[2] = tested on: P. granulosum clinical isolates 2004-8, 2004-4 and 2002-1; test: Spot/drop assay on clinical isolates of P. granulosum (2004-8, 2004-4 and 2002-1); type: cell-based; settings: Clindamycin 1% gel ~10 μL; Erythromycin 20 μg/mL 5 μL, applied directly to bacterial lawn
Experimental: These bacterial strains show sensitivity to Clindamycin (1% gel, ˜10 μL) and Erythromycin (20 μg/mL, 5 μL) when the antibiotics are applied directly to a bacterial lawn of these strains, but are resistant to all the tested phage.

CC[C@H]1OC(=O)[C@H](C)[C@@H](O[C@H]2C[C@@](C)(OC)[C@@H](O)[C@H](C)O2)[C@H](C)[C@@H](O[C@@H]2O[C@H](C)C[C@H](N(C)C)[C@H]2O)[C@](C)(O)C[C@@H](C)C(=O)[C@H](C)[C@@H](O)[C@]1(C)O [Erythromycin]
Remaining log bacteria after phage or antibiotic treatment of biofilm ([1]; 24 hours post treatment): More than 9 Logs CFU | Remaining log bacteria after phage or antibiotic treatment of biofilm ([1]; 48 hours post treatment): 8 Logs CFU | decrease in bacterial counts in biofilm ([1]; after 24 hours): no visible decrease | remaining bacteria per milliliter ([1]; after 48 hours): 8 logs | response of P. granulosum isolates to antibiotics [2]: sensitivity
